# Experimental data as given in patent US9885704B2, “Reagents and methods for cancer treatment and prevention” (priority 2006, dated 2018).
# Assays:
# [1] = tested on: HeLa cells; assay: Pro-inflammatory cytokine release from THP-1 after exposure to compound-treated HeLa cells (ELISA); assay type: cell-based, human; conditions: for TNF-α secretion / immunostimulatory activity: HeLa cells treated with compound, FIG. 1
# Method: The human cervical epithelium cell line HeLa and the mouse B16-F10 melanoma were purchased from American TCC and maintained in Dulbecco's modified eagle's media [D-MEM (Cellgro®, Herndon Va.)] supplemented with 10% fetal bovine serum (Sigma-Aldrich, St. Louis, Mo.). All cell stress/death-related treatments described below were performed using HeLa cells in initial screens. The human promonocytic leukemia THP-1 (ATCC, Manassas Va.) and pro-macrophage MonoMac6 cells were utilized as the reporter antigen presenting cells utilized in this study. Ziegler-Heitbrock et al., “Establishment of a human cell line (Mono Mac 6) with characteristics of mature monocytes” Int. J. Cancer 41:456-461 (1988). Both lines were maintained in RPMI-1640 media (Cellgro®) supplemented with 10% fetal bovine serum. Unless otherwise noted, all cells were maintained at 37° C. in a humidified incubator supplemented with 5% CO2.
# The following list includes the small molecule compounds evaluated in this study: thapsigargin, thapsigargicin (MP Biomedicals, Irvine Calif.), 1,2-bis(o-aminophenoxy)ethane-N,N,N′,N′-tetraacetic Acid Tetra(acetoxymethyl) ester [BAPTA-AM, (EMD Biosciences, San Diego, Calif.)], ethyleneglycol-bis(β-aminoethyl)-N,N,N′,N′-tetraacetoxymethyl ester [EGTA-AM (EMD Biosciences)], 1,2-bis(2-aminophenoxy)ethane-N,N,N′,N′-tetraacetic acid […], tetrandrine, KCl, Amyloid peptide Aβ1-42, 1-Oleoyl-2-acetyl-sn-glycerol (OAG), calcimycin A23187, 2-aminoethyl diphenylborinate (2-APB), histamine, cyclopiazonic acid, 2,5-di-(t-butyl)-1,4-hydroquinone [BHQ (EMD Biosciences)], GdCl3, nicardipine hydrochloride, 1-(o-chloro-α,αdiphenylbenzyl)imidazole (clotrimazole), apamin, charybdotoxin, radicicol, brefeldin A, tunicamycin, tamoxifen, ionomycin, staurosporine, cis-diammineplatinum(II) dichloride (cisplatin), paclitaxel, methotrexate, cycloheximide, and rapamycin. Unless otherwise noted, all compounds were purchased from Sigma-Aldrich. Compounds were dissolved per manufacturer's recommendations prior to addition to HeLa cells in a range of concentrations based on the published literature and incubated between 1 minute to two days. The known mediators of inflammation pam3cys-ser-(lys)4, hydrochloride (Pam3Cys), bacterial flagellin, and lipopolysaccharide were purchased from EMD Biosciences.
# Following cell stress/death, resulting cells/cell debris were collected, washed 3 times with excess phosphate-buffered saline, rapidly cycled through freeze/thaw (−80° C. to 25° C.) three times, and quantified by UV spectrophotometry (A280). To determine the presence of pro-inflammatory signals within stressed/dead cells, 40 μg of stressed/dead cell were added to 50,000 THP-1 and incubated for 18 hours. Supernatants were assessed for the presence of pro-inflammatory cytokines including tumor necrosis factor-α (TNF-α), interleukin 8 (IL-8), and IL-12 using commercially available ELISA systems.
# A variety of different potential cell stress and cell death inducing agents were screened. […] (See FIG. 1).
# [2] = tested on: NF-κB promoter (THP-1 Clone A9); assay: NF-κB promoter luciferase reporter, THP-1 Clone A9; assay type: cell-based, human; conditions: 50,000 reporter cells, 18 hours; FIG. 10
# Description: A stably transfected DNA construct encoding a NF-κB promoter driving firefly luciferase expression was integrated into: i) human pre-monocytic cell line THP-1; and ii) human premonocytic cell line MonoMac-6. Briefly, DNA encoding a concatemerized NF-κB response element upstream of the firefly luciferase gene [Ting et al., “RIP mediates tumor necrosis factor receptor 1 activation of NF-kappaB but not Fas/APO-1-initiated apoptosis” EMBO J. November 15; 15(22):6189-96(1996)] was subcloned into the pEAK8 vector backbone (Edge Biosystems, Gaithersburg Md.) by standard molecular biology techniques. Electroporations were performed using 10 μg of DNA and 700,000 THP-1 or MonoMac6 cells using a Biorad Gene Pulser II electroporator (Biorad, Hercules Calif.), 0.4 cm electrocuvettes, and 200 V, 950 μF. […] Luciferase expression was quantified using a Top Count NXT luminometer (Perkin Elmer, Wellesley Mass.). […]
# The THP-1-derived clone A9 recognition of the TLR ligands Pam-3-Cys (signaling through TLR2) and bacterial flagellin (signaling through TLR5), but not bacterial lipopolysaccharide (signaling through TLR4) was determined by monitoring NF-κB activity in 96-well white plate automated assays during TG incubation. […]
# [3] = tested on: NF-κB promoter (MonoMac-6 Clone C5); assay: NF-κB promoter luciferase reporter, MonoMac-6 Clone C5; assay type: cell-based, human; conditions: FIG. 11
# Description: A stably transfected DNA construct encoding a NF-κB promoter driving firefly luciferase expression was integrated into: i) human pre-monocytic cell line THP-1; and ii) human premonocytic cell line MonoMac-6. Briefly, DNA encoding a concatemerized NF-κB response element upstream of the firefly luciferase gene [Ting et al., “RIP mediates tumor necrosis factor receptor 1 activation of NF-kappaB but not Fas/APO-1-initiated apoptosis” EMBO J. November 15; 15(22):6189-96(1996)] was subcloned into the pEAK8 vector backbone (Edge Biosystems, Gaithersburg Md.) by standard molecular biology techniques. Electroporations were performed using 10 μg of DNA and 700,000 THP-1 or MonoMac6 cells using a Biorad Gene Pulser II electroporator (Biorad, Hercules Calif.), 0.4 cm electrocuvettes, and 200 V, 950 μF. Following electroporation, cells were allowed to recover for two days prior to selection with 300 ng/ml puromycin aminonucleoside (Sigma-Aldrich) for the generation of stably transfected clones. Luciferase expression was quantified using a Top Count NXT luminometer (Perkin Elmer, Wellesley Mass.). Briefly, 50,000 reporter cells were incubated with indicated concentrations of the mediators of inflammation listed for 18 hours in 96-well white plates prior to harvest and analysis.
# A second stable NF-κB reporter construct transfectant was created using MonoMac-6 cells. […]
# [4] = tested on: Ca(2+)-ATPase from sarcoplasmic and endoplasmic reticula; conditions: activity not further specified; context Ca(2+)-ATPase inhibitory potency; cited from earlier work
Molecule,TNF-α secretion / immunostimulatory activity [1],other results
"CNc1ccc2oc(C[C@H]3O[C@@]4(CC[C@H]3C)O[C@H]([C@H](C)C(=O)c3ccc[nH]3)[C@H](C)C[C@H]4C)nc2c1C(=O)O [calcimycin, calcimycin A23187]",did not induce immunostimulatory activity,
"pam3cys-ser-(lys)4, hydrochloride",,"recognition (NF-κB activity, luciferase) [2]: recognition; recognition (NF-κB activity, luciferase) [3]: recognized"
C[C@@H]1C[C@@H]([C@H](O)CC2CC(=O)NC(=O)C2)C(=O)[C@@H](C)C1 [cycloheximide],did not induce immunostimulatory activity,
C/C=C(/C)C(=O)O[C@@H]1C[C@H]2[C@@H]([C@H]1C)[C@@H]1OC(=O)[C@@](C)(O)[C@@]1(O)C(OC(=O)[C@@H](C)CC)C[C@]2(C)OC(C)=O (stereo partly shown) [compound 77],,activity of synthetic thapsigargin analogue [4]: potent activity
"CC(=O)O[C@H]1C(=O)[C@@]2(C)[C@H]([C@H](OC(=O)c3ccccc3)[C@]3(O)C[C@H](OC(=O)[C@H](O)[C@@H](NC(=O)c4ccccc4)c4ccccc4)C(C)=C1C3(C)C)[C@]1(OC(C)=O)CO[C@@H]1C[C@@H]2O [Taxol®, paclitaxel]",did not induce immunostimulatory activity,
C/C=C(/C)C(=O)O[C@H]1C(C)=C2[C@H]([C@@H]1OC(=O)CCCCC)[C@@](C)(OC(C)=O)C[C@H](OC(=O)CCC)[C@@]1(O)[C@H]2OC(=O)[C@@]1(C)O [Thapsigargicin],,"secretion of IL-8 from THP-1 ([1]; treated HeLa cells, monocyte cell line THP-1, FIG. 2): activated a dose-dependent secretion of IL-8"
tunicamycin,did not induce immunostimulatory activity,
"C[C@H]1CCC/C=C/[C@@H]2C[C@H](O)C[C@H]2[C@H](O)/C=C/C(=O)O1 [brefledin A, brefeldin A]",did not induce immunostimulatory activity,
bacterial lipopolysaccharide,,"recognition (NF-κB activity, luciferase) [3]: improved recognition"
